Measurements: ChEMBL document CHEMBL1141476, “Novel echinocandin antifungals. Part 1: novel side-chain analogs of the natural product FR901379” (Bioorg Med Chem Lett, 2008)
≈ marks a conversion by molar mass, not a printed value. Starred links: 1 amine or outer side, 2 acyl side, 3 side chain; linkers in the order of their positions; H or OH if unused. Positions of bridges follow the written chain, without caps; N, C: chain ends. Non-standard residues stand in square brackets, D forms with d. Residues, ends and D or L forms follow the SMILES beside them. *: point of attachment. hTyr(3S-OH,4S-OH,3'-OSO3H) = N[C@H](C(=O)O)[C@H](O)[C@@H](O)c1ccc(O)c(OS(=O)(=O)O)c1; Orn(4R-OH,5R-OH) = O=C([C@H](C[C@@H](O)[C@@H](O)N[*:3])N[*:1])[*:2]; Orn(4R-OH,5S-OH) = O=C([C@H](C[C@@H](O)[C@H](O)N[*:3])N[*:1])[*:2]; Pro(3S-OH,4S-Me) = C[C@H]1CN[C@H](C(=O)O)[C@H]1O; X1 = CCCCOc1ccc(-c2ccc(-c3ccc(C(=O)*)cc3)cc2)cc1; Benzoyl(4-octyloxy) = CCCCCCCCOc1ccc(C(=O)*)cc1; Gln(3R-OH) = NC(=O)C[C@@H](O)[C@H](N)C(=O)O; Hyp = O=C(O)[C@@H]1C[C@@H](O)CN1

What was measured:
[1] = Effect on hemolysis in red blood cells; format: ADME, cell-based, Erythrocyte
Candida albicans [2] = assay: Antifungal activity against Candida albicans FP633 in in vivo model; format: functional
Aspergillus fumigatus [3] = assay: Antifungal activity against Aspergillus fumigatus FP1305; format: functional, organism-based
Aspergillus fumigatus [4] = assay: Antifungal activity against Aspergillus fumigatus 8004 in in vivo model; format: functional
Candida albicans [5] = assay: Antifungal activity against Candida albicans FP633; format: functional

| SMILES | LC30 [1] [µg/mL] | ED50 (Candida albicans [2]) [mg/kg] | IC50 (Aspergillus fumigatus [3]) [µg/mL] | ED50 (Aspergillus fumigatus [4]) [mg/kg] | MIC (Candida albicans [5]) [µg/mL] |
| --- | --- | --- | --- | --- | --- |
| CCCCCCCCOc1ccc2cc(C(=O)N[C@@H]3C[C@@H](O)[C@@H](O)NC(=O)[C@@H]4[C@@H](O)[C@@H](C)CN4C(=O)[C@H]([C@H](O)CC(N)=O)NC(=O)[C@H]([C@H](O)[C@@H](O)c4ccc(O)c(OS(=O)(=O)[O-])c4)NC(=O)[C@@H]4C[C@@H](O)CN4C(=O)C([C@@H](C)O)NC3=O)ccc2c1.[Na+] (stereo not given in full) | > 10000 | 0.46 | 0.003 | 0.79 | 0.1 |
| CCCCCOc1ccc(-c2ccc(/C=C/C(=O)N[C@@H]3C[C@@H](O)[C@@H](O)NC(=O)[C@@H]4[C@@H](O)[C@@H](C)CN4C(=O)[C@H]([C@H](O)CC(N)=O)NC(=O)[C@H]([C@H](O)[C@@H](O)c4ccc(O)c(OS(=O)(=O)[O-])c4)NC(=O)[C@@H]4C[C@@H](O)CN4C(=O)C([C@@H](C)O)NC3=O)cc2)cc1.[Na+] (stereo not given in full) | 3950 |  | 0.002 |  | 0.05 |
| CCCCCCOc1ccc2cc(C(=O)N[C@@H]3C[C@@H](O)[C@@H](O)NC(=O)[C@@H]4[C@@H](O)[C@@H](C)CN4C(=O)[C@H]([C@H](O)CC(N)=O)NC(=O)[C@H]([C@H](O)[C@@H](O)c4ccc(O)c(OS(=O)(=O)[O-])c4)NC(=O)[C@@H]4C[C@@H](O)CN4C(=O)C([C@@H](C)O)NC3=O)ccc2c1.[Na+] (stereo not given in full) | > 10000 |  | 0.025 |  | 0.78 |
| CCCCCCCCOc1ccc(/C=C/C(=O)N[C@@H]2C[C@@H](O)[C@@H](O)NC(=O)[C@@H]3[C@@H](O)[C@@H](C)CN3C(=O)[C@H]([C@H](O)CC(N)=O)NC(=O)[C@H]([C@H](O)[C@@H](O)c3ccc(O)c(OS(=O)(=O)[O-])c3)NC(=O)[C@@H]3C[C@@H](O)CN3C(=O)C([C@@H](C)O)NC2=O)cc1.[Na+] (stereo not given in full) | > 10000 |  |  |  | 0.78 |
| CCCCCCCOc1ccc(-c2ccc(C(=O)N[C@@H]3C[C@@H](O)[C@@H](O)NC(=O)[C@@H]4[C@@H](O)[C@@H](C)CN4C(=O)[C@H]([C@H](O)CC(N)=O)NC(=O)[C@H]([C@H](O)[C@@H](O)c4ccc(O)c(OS(=O)(=O)[O-])c4)NC(=O)[C@@H]4C[C@@H](O)CN4C(=O)C([C@@H](C)O)NC3=O)cc2)cc1.[Na+] (stereo not given in full) | 910 |  | 0.002 |  | 0.1 |
| CCCCOc1ccc(-c2ccc(-c3ccc(C(=O)N[C@H]4C[C@@H](O)[C@@H](O)NC(=O)[C@@H]5[C@@H](O)[C@@H](C)CN5C(=O)[C@H]([C@H](O)CC(N)=O)NC(=O)[C@H]([C@H](O)[C@@H](O)c5ccc(O)c(OS(=O)(=O)O)c5)NC(=O)[C@@H]5C[C@@H](O)CN5C(=O)[C@H]([C@@H](C)O)NC4=O)cc3)cc2)cc1 (X1-[Orn(4R-OH,5R-OH)]T[Hyp][hTyr(3S-OH,4S-OH,3'-OSO3H)][Gln(3R-OH)][Pro(3S-OH,4S-Me)]; lactam 1-C) [listing 1 of 2 here] |  |  |  |  | 0.0125 (≈ 9.88 nM) |
| CCCCCCCCOc1ccc(C(=O)N[C@H]2C[C@@H](O)[C@H](O)NC(=O)[C@@H]3[C@@H](O)[C@@H](C)CN3C(=O)[C@H]([C@H](O)CC(N)=O)NC(=O)[C@H]([C@H](O)[C@@H](O)c3ccc(O)c(OS(=O)(=O)[O-])c3)NC(=O)[C@@H]3C[C@@H](O)CN3C(=O)[C@H]([C@@H](C)O)NC2=O)cc1.[Na+] [FR-131535] ({Benzoyl(4-octyloxy)}-[Orn(4R-OH,5S-OH)]T[Hyp][hTyr(3S-OH,4S-OH,3'-OSO3H)][Gln(3R-OH)][Pro(3S-OH,4S-Me)]; lactam 1-C) | > 10000 | 3.71 | 0.015 | 4.31 | 0.78 |
| CCCCCCCCCCOc1ccc(C(=O)N[C@@H]2C[C@@H](O)[C@@H](O)NC(=O)[C@@H]3[C@@H](O)[C@@H](C)CN3C(=O)[C@H]([C@H](O)CC(N)=O)NC(=O)[C@H]([C@H](O)[C@@H](O)c3ccc(O)c(OS(=O)(=O)[O-])c3)NC(=O)[C@@H]3C[C@@H](O)CN3C(=O)C([C@@H](C)O)NC2=O)cc1.[Na+] (stereo not given in full) | 10000 |  | 0.005 |  | 0.2 |
| CCCCCCCOc1ccc2cc(C(=O)N[C@@H]3C[C@@H](O)[C@@H](O)NC(=O)[C@@H]4[C@@H](O)[C@@H](C)CN4C(=O)[C@H]([C@H](O)CC(N)=O)NC(=O)[C@H]([C@H](O)[C@@H](O)c4ccc(O)c(OS(=O)(=O)[O-])c4)NC(=O)[C@@H]4C[C@@H](O)CN4C(=O)C([C@@H](C)O)NC3=O)ccc2c1.[Na+] (stereo not given in full) | > 10000 |  | 0.004 |  | 0.39 |
| CCCCOc1ccc(-c2ccc(-c3ccc(C(=O)N[C@H]4C[C@@H](O)[C@@H](O)NC(=O)[C@@H]5[C@@H](O)[C@@H](C)CN5C(=O)[C@H]([C@H](O)CC(N)=O)NC(=O)[C@H]([C@H](O)[C@@H](O)c5ccc(O)c(OS(=O)(=O)O)c5)NC(=O)[C@@H]5C[C@@H](O)CN5C(=O)[C@H]([C@@H](C)O)NC4=O)cc3)cc2)cc1 (X1-[Orn(4R-OH,5R-OH)]T[Hyp][hTyr(3S-OH,4S-OH,3'-OSO3H)][Gln(3R-OH)][Pro(3S-OH,4S-Me)]; lactam 1-C) [listing 2 of 2 here] | 370 (≈ 292000 nM) |  | 0.002 (≈ 1.58 nM) |  |  |
| CCCCCCCCCCCCOc1ccc2cc(C(=O)N[C@@H]3C[C@@H](O)[C@@H](O)NC(=O)[C@@H]4[C@@H](O)[C@@H](C)CN4C(=O)[C@H]([C@H](O)CC(N)=O)NC(=O)[C@H]([C@H](O)[C@@H](O)c4ccc(O)c(OS(=O)(=O)[O-])c4)NC(=O)[C@@H]4C[C@@H](O)CN4C(=O)C([C@@H](C)O)NC3=O)ccc2c1.[Na+] (stereo not given in full) | 410 |  |  |  | 0.78 |
| CCCCCCCCCCOc1ccc2cc(C(=O)N[C@@H]3C[C@@H](O)[C@@H](O)NC(=O)[C@@H]4[C@@H](O)[C@@H](C)CN4C(=O)[C@H]([C@H](O)CC(N)=O)NC(=O)[C@H]([C@H](O)[C@@H](O)c4ccc(O)c(OS(=O)(=O)[O-])c4)NC(=O)[C@@H]4C[C@@H](O)CN4C(=O)C([C@@H](C)O)NC3=O)ccc2c1.[Na+] (stereo not given in full) | 750 |  | 0.015 |  | 0.2 |
